Earlier results in US20230149295A1, “INFLAMMATORY BOWEL DISEASE STEM CELLS, AGENTS WHICH TARGET IBD STEM CELLS, AND USES RELATED THERETO” (University of Houston System, priority 2020, published 2023).

What was measured:
STAT3 = STAT3 (Homo sapiens, UniProt P40763); conditions: cell-free assays; read-out: IC50 for inhibition of STAT3 activation and nuclear translocation
STAT1 = biological target: T1, STAT1 (Homo sapiens, UniProt P42224); conditions: cell-free assays
T1 sequence (P42224 1-750): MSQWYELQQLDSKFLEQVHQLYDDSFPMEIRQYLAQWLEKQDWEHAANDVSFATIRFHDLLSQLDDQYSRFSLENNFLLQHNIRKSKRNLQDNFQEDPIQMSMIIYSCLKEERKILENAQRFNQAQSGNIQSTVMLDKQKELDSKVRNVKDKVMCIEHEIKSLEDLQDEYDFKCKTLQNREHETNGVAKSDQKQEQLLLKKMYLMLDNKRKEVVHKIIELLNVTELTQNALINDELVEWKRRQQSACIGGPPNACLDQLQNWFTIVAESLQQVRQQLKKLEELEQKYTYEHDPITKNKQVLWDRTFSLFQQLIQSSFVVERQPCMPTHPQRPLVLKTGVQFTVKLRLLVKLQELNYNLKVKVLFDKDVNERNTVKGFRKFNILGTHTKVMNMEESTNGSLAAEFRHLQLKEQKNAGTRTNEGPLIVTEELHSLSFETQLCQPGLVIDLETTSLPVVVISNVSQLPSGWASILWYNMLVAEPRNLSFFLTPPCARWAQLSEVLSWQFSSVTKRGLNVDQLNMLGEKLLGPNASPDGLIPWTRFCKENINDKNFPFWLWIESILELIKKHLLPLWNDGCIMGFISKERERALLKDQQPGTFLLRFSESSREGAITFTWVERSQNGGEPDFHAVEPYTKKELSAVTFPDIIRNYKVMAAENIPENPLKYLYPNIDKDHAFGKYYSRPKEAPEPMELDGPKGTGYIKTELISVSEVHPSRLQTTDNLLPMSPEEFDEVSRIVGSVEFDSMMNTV

Sequence of STAT3 (P40763 whole entry, species assumed): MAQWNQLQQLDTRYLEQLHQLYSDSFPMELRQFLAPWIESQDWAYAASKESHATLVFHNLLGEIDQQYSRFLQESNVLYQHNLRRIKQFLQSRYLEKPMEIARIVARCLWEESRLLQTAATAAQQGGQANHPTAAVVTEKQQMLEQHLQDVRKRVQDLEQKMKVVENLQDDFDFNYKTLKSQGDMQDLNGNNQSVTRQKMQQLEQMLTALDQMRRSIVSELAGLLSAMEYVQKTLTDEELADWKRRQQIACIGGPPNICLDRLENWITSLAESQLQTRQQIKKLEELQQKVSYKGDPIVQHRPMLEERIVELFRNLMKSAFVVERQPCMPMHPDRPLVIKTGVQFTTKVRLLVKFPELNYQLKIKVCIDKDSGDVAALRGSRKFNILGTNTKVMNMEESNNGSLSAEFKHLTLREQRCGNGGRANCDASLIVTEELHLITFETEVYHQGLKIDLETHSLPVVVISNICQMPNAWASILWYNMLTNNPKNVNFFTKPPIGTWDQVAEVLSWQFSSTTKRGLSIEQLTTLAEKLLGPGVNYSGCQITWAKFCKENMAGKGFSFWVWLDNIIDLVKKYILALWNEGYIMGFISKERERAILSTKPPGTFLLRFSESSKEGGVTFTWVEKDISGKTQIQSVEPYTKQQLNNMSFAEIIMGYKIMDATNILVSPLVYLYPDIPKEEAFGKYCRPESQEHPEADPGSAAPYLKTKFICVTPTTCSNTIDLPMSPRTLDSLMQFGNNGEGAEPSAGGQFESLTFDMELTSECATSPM

SMILES: O=[N+]([O-])c1ccc2c(c1)S(=O)(=O)C=C2 [Stattic]
- IC50 (STAT3): 5.1 µM
- selectivity for STAT3 over STAT1 (STAT1): highly selectivity over STAT1

SMILES: C=CC(=O)Nc1cccc(Sc2nc(Nc3ccc(N4CCN(C)CC4)cc3)ncc2Cl)c1 [WZ8040]
- inhibition of ERBB2 phosphorylation (T7981) (ERBB2): does not inhibit
